In paper PMC8066331, “Anticancer Activity of Triazolo-Thiadiazole Derivatives and Inhibition of AKT1 and AKT2 Activation” (Pharmaceutics, 2021) one finds IC50, GI50 and IC (TGI) data, which are given here for seven compounds.

Some results are limits rather than exact numbers.

The subject of one assay is SKOV-3. Description: MTT in vitro antiproliferative assay, SKOV-3. Type of assay: cell-based. To be noted: Homo sapiens, SK-OV-3, SKOV-3, MTT; for IC50: 48 h, concentration causing 50% cell death, read-out: IC50; for GI50 / IC (TGI): 48 h drug exposure; for GI50: read-out: GI50; for IC (TGI): read-out: TGI. From the text:
(§1) The in vitro antiproliferative activities of the novel triazolo[3,4-b]thiadiazole derivatives were estimated in ten well-established human cancer cell lines including three ovarian (SKOV-3, UWB 1.289, and UWB 1.289+BRCA1), five colorectal adenocarcinoma (DLD-1, HT-29, LS174T, LoVo, and SW403), and two prostate cancer cell lines (PC-3 and DU-145). All cancer cell lines were obtained from the American Type Culture Collection (ATCC) and cultivated in different culture media according to the instructions. The required growth mediums were supplemented with 10% fetal bovine serum and 1% streptomycin/penicillin. All cancer cell lines were cultured as monolayers and maintained at 37 °C, 5% CO2 in humidified air.
(§2) Stock solutions of all tested compounds were prepared by dissolving the required amount of substances in the DMSO solvent to reach the desired concentration of 15 mM.
(§3) To evaluate the in vitro antiproliferative activity of the triazolo[3,4-b]thiadiazole derivatives, 3-(4,5-dimethylthiazol-2-yl)-2,5-diphenyltetrazolium bromide (MTT) assay was assessed. According to the protocol, cells were firstly seeded into a 96-well plate at a density of 8 × 10^3 cells and grown for 24 h at 37 °C, 5% CO2 in humidified air. Subsequently, cells were treated with the tested compounds in a specific range of drug concentrations (1–100 μΜ). Following 48 h of drug exposure, the culture media were discarded and replaced with 100 μL of fresh medium. Afterwards, 50 μL of dissolved MTT in phosphate-buffered saline (PBS) solution (5 mg/mL) were added in each well and cells were incubated for 3 h at 37 °C, 5% CO2 in humidified air. Incubation time was followed by MTT discard and the addition of 100 μL of DMSO solvent so that the formazan crystals could be dissolved. The absorbance of the converted dye was immediately measured at a wavelength of 540 nm on an ELISA reader (VersaMax Microplate Reader, Orleans, CA, USA).
(§4) The in vitro anticancer effect of a tested compound on cell viability was determined by three dose–response parameters termed GI50, TGI, and IC50. More specifically, the GI50 value indicates the required concentration of the compound that impels 50% cell growth inhibition, the TGI value corresponds to the concentration that induces 100% cell growth inhibition, and the IC50 value is the concentration that causes 50% cell death. The two parameters GI50 and TGI represent the cytostatic activity, whereas IC50 reflects the cytotoxic effect of a drug. To estimate the three parameters, nine absorbance measurements were required including control 24 h (Ct24), control 72 h (Ct72), and the mean of cell survival in all seven drug concentrations (Tt72). The percentage growth inhibition was calculated according to National Cancer Institute’s (NCI) protocol: [(Tt72x) − (Ct24)/(Ct72) − (Ct24)] × 100 for concentrations for which Tt72x > Ct24 and [(Tt72x) − (Ct24)/Ct24] × 100 for concentrations for which Tt72x < Ct24. GI50 was calculated from [(Tt72x) − (Ct24)/(Ct72) − (Ct24)] × 100 = 50, TGI was calculated from [(Tt72x) − (Ct24)/(Ct72) − (Ct24)] × 100 = 0, and IC50 was calculated from [(Tt72x) − (Ct24)/Ct24] × 100 = 50. All the experiments were carried out in triplicate.

The next assay has as its system PC-3. Description: MTT in vitro antiproliferative assay, PC-3. Type of assay: cell-based. To be noted: Homo sapiens, PC-3, MTT; for IC50: 48 h, 50% cell death, read-out: IC50; for GI50 / IC (TGI): 48 h drug exposure; for GI50: read-out: GI50; for IC (TGI): read-out: TGI.
Text: as §1, §2, §3, §4

Take `CCN(CC)S(=O)(=O)c1cc(OC)c(OC)cc1Cc1nnc2sc(-c3cccc(Cl)c3)nn12` [Compound 6a, 2-((6-(3-chlorophenyl)-[1,2,4]triazolo[3,4-b][1,3,4]thiadiazol-3-yl)methyl)-N,N-diethyl-4,5-dimethoxybenzenesulfonamide]: in the assay with SKOV-3, the IC50 is over 100 µM, the GI50 is 6 ± 0.3 µM and the IC (TGI) came to 14 ± 2.5 µM. Also, in the assay on PC-3, the IC50 was over 100 µM, the GI50 was determined as 25 ± 1.4 µM and the IC (TGI) came to 112 ± 2.5 µM.

Regarding `CCN(CC)S(=O)(=O)c1cc(OC)c(OC)cc1Cc1nnc2sc(/C=C/c3ccc(F)cc3)nn12` [Compound 9b, (E)-N,N-diethyl-2-((6-(4-fluorostyryl)-[1,2,4]triazolo[3,4-b][1,3,4]thiadiazol-3-yl)methyl)-4,5-dimethoxybenzenesulfonamide], in the assay on SKOV-3, the IC50 is over 100 µM, the GI50 is over 100 µM and the IC (TGI) is over 100 µM. Besides, in the assay on PC-3, the IC50 is over 100 µM, the GI50 worked out at 42 ± 1 µM and the IC (TGI) was over 100 µM.

`COc1cc(Cc2nnc3sc(-c4ccc(F)cc4)nn23)c(S(=O)(=O)N(C(C)C)C(C)C)cc1OC` [Compound 7b, 2-((6-(4-fluorophenyl)-[1,2,4]triazolo[3,4-b][1,3,4]thiadiazol-3-yl)methyl)-N,N-diisopropyl-4,5-dimethoxybenzenesulfonamide]: in the assay with SKOV-3, the IC50 is over 100 µM, the GI50 worked out at 80 ± 0.8 µM and the IC (TGI) was over 100 µM. In the assay on PC-3, the IC50 is over 100 µM, the GI50 was found to be 25 ± 0.5 µM and the IC (TGI) stood at 80 ± 1 µM.

For `CCN(CC)S(=O)(=O)c1cc(OC)c(OC)cc1Cc1nnc2sc(-c3ccc([N+](=O)[O-])cc3)nn12` [Compound 6d, N,N-diethyl-4,5-dimethoxy-2-((6-(4-nitrophenyl)-[1,2,4]triazolo[3,4-b][1,3,4]thiadiazol-3-yl)methyl)benzenesulfonamide], in the assay on SKOV-3, the IC50 was over 100 µM, the 50% growth inhibitory concentration (GI50) was 80 ± 0.5 µM and the IC (TGI) was over 100 µM. In the assay on PC-3, the IC50 is over 100 µM, the GI50 is 50 ± 0.5 µM and the IC (TGI) is over 100 µM.

As for `CCN(CC)S(=O)(=O)c1cc(OC)c(OC)cc1Cc1nnc2sc(/C=C/c3ccc(Cl)cc3)nn12` [Compound 9a, (E)-2-((6-(4-chlorostyryl)-[1,2,4]triazolo[3,4-b][1,3,4]thiadiazol-3-yl)methyl)-N,N-diethyl-4,5-dimethoxybenzenesulfonamide], in the assay with SKOV-3, the IC50 is over 100 µM, the GI50 is 84 ± 2 µM and the IC (TGI) was over 100 µM. In the assay with PC-3, the IC50 is over 100 µM, the GI50 worked out at 11 ± 1 µM and the IC (TGI) is over 100 µM.

For the compound `CCN(CC)S(=O)(=O)c1cc(OC)c(OC)cc1Cc1nnc2sc(-c3ccc(F)cc3)nn12` [Compound 6c, N,N-diethyl-2-((6-(4-fluorophenyl)-[1,2,4]triazolo[3,4-b][1,3,4]thiadiazol-3-yl)methyl)-4,5-dimethoxybenzenesulfonamide], in the assay with SKOV-3, the IC50 is over 100 µM, the GI50 is over 100 µM and the IC (TGI) was over 100 µM. Also, in the assay with PC-3, the IC50 is over 100 µM, the GI50 came to 90 ± 2 µM and the IC (TGI) was over 100 µM.

Regarding `COc1cc(Cc2nnc3sc(-c4cccc(Cl)c4)nn23)c(S(=O)(=O)N(C(C)C)C(C)C)cc1OC` [Compound 7a, 2-((6-(3-chlorophenyl)-[1,2,4]triazolo[3,4-b][1,3,4]thiadiazol-3-yl)methyl)-N,N-diisopropyl-4,5-dimethoxybenzenesulfonamide], in the assay on SKOV-3, the IC50 is over 100 µM, the GI50 stood at 16 ± 0.8 µM and the IC (TGI) came to 46 ± 1.5 µM. In the assay on PC-3, the IC50 was over 100 µM, the GI50 was 20 ± 0.8 µM and the IC (TGI) was over 100 µM.
